Results taken from US12043594B2, “Biphenyl derivative compound and use thereof” (EWHA UNIVERSITY—INDUSTRY COLLABORATION FOUNDATION, priority 2018, dated 2024).

Legend:
[1] = biological target: recombinant Nm23-H1 (Homo sapiens, UniProt P15531); assay: NDPK assay with recombinant Nm23-H1; type: biochemical; settings: 5 ng recombinant Nm23-H1, incubated 10 minutes at room temperature, then 5 μM ADP for 1 minute
Protocol: NDPK assay was performed by incubating 5 ng of recombinant Nm23-H1 with each of test compounds (Examples 1 to 3) in NDPK assay buffer (20 mM HEPES, 3 mM MgCl2) at room temperature for 10 minutes, followed by reaction with 5 μM ADP for 1 minute.

[2] = system: MDA-MB-321 cells; assay: 3D tumor spheroid model, co-treatment with paclitaxel; type: cell-based; settings: co-treated with paclitaxel, 14 days after treatment, FIG. 5
Protocol: In order to evaluate the effect of co-treatment with paclitaxel (PTX) which is used as a chemotherapeutic agent against triple negative breast cancer, the effect of co-treatment was evaluated using a 3D tumor spheroid model in a manner similar to Example 7.
(§1) Specifically, 7.5 K MDA-MB-321 cells were 3D-cultured in an ultra-low attachment (ULA) 96-well plate (Perkin Elmer) under a 2.5% Matrigel™ (BD Biosciences) condition. 5 days after 3D spheroid production, the cells were co-treated with the compound (B024) of Example 1 according to the present disclosure and paclitaxel in a concentration-dependent manner, and 14 days after the treatment, the cancer cell growth inhibitory effect of co-treatment was evaluated.

[3] = system: MDA-MB-321 cells; assay: 3D tumor spheroid model; type: cell-based; settings: various concentrations, 14 days after treatment, FIG. 4
Protocol: The cancer growth inhibitory effect of administration of the compounds according to the present disclosure was evaluated using a 3D tumor spheroid model. The 3D tumor spheroid structure has characteristics similar to solid cancer under normal stress conditions because it is not easy to transfer nutrients into cancer cells.
as §1, with “treated” for “co-treated”, “with various concentrations of” for “with”, “(#24)” for “(B024)”, “disclosure,” for “disclosure and paclitaxel in a concentration-dependent manner,”, “the compound” for “co-treatment”

Chain of recombinant Nm23-H1 (P15531 whole entry): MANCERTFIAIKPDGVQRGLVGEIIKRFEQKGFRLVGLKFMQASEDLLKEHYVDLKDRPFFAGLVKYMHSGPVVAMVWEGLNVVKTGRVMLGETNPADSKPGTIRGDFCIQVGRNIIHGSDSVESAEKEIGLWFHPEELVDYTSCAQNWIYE

NDPK activity [1]	Structure (SMILES)	cancer cell growth in 3D tumor spheroid model, co-administration with paclitaxel [2]	cancer cell growth in the 3D tumor spheroid model [3]
1.4	COc1ccc(Cc2cccc(-c3ccc(OC)c(OC)c3)c2)cc1OC [Example 2, 3′-(3,4-dimethoxybenzyl)-3,4-dimethoxy-1,1′-biphenyl]	–	–
2.8	COc1ccc(-c2cccc(C(O)c3ccc(OC)c(OC)c3)c2)cc1OC (centres unmarked) [Example 1, (3′,4′-dimethoxy-[1,1′-biphenyl]-3-yl)(3,4-dimethoxyphenyl)methanol]	significantly inhibited cancer cell growth even at low concentrations	significantly inhibited cancer cell growth
1.7	COc1ccc(C(=O)c2cccc(-c3ccc(OC)c(OC)c3)c2)cc1OC [Example 3, (3′,4′-dimethoxy-[1,1′-biphenyl]-3-yl)(3,4-dimethoxyphenyl)methanone]	–	–
